Source: US12398130B2, “Acid addition salts of piperazine derivatives” (Asceneuron SA, priority 2016, dated 2025)
Counter-ions that a name gives are not always drawn.

Assay: Visual aqueous solubility
Type: physicochemical
Details: water added in portions to ~10 mg, assessed visually after brief equilibration
Procedure: The salts and free base (˜10 mg) were weighed into glass vials and water was added in 0.1 mL portions up to 3 mL and 1 mL portions thereafter. Solubility was assessed visually following a brief period of equilibration.

Visual aqueous solubility (listed as Free base) [µg/mL]	Visual aqueous solubility [µg/mL]	SMILES
<500	–	CC(=O)Nc1nnc(N2CCN([C@@H](C)c3ccc4c(c3)OCO4)CC2)s1 [Example 69, (S)—N-(5-(4-(1-(benzo[d][1,3]dioxol-5-yl)ethyl)piperazin-1-yl)-1,3,4-thiadiazol-2-yl)acetamide]
–	~4500	CC(=O)Nc1nnc(N2CCN([C@@H](C)c3ccc4c(c3)OCO4)CC2)s1 [Hydrochloride salt, (S)—N-(5-(4-(1-(benzo[d][1,3]dioxol-5-yl)ethyl)piperazin-1-yl)-1,3,4-thiadiazol-2-yl)acetamide]
–	~20000	CC(=O)Nc1nnc(N2CCN([C@@H](C)c3ccc4c(c3)OCO4)CC2)s1 [L-Tartrate salt, (S)—N-(5-(4-(1-(benzo[d][1,3]dioxol-5-yl)ethyl)piperazin-1-yl)-1,3,4-thiadiazol-2-yl)acetamide]
–	~4500	CC(=O)Nc1nnc(N2CCN([C@@H](C)c3ccc4c(c3)OCO4)CC2)s1 [Maleate salt, (S)—N-(5-(4-(1-(benzo[d][1,3]dioxol-5-yl)ethyl)piperazin-1-yl)-1,3,4-thiadiazol-2-yl)acetamide]
